Reference: article PMC6602303, “Yeast ceramide synthases, Lag1 and Lac1, have distinct substrate specificity” (Journal of Cell Science, 2019)

Columns and labels:
Lag1 = target: T1, Lag1 (Saccharomyces cerevisiae, UniProt P38703); test: in vitro CerS assay, TLC fluorescence of NBD-ceramide; type: cell-free (lysate); details: labelled compound; 50 μM C26-CoA, 5 μM human ACBP1, 20 μM defatted BSA, 2 mM MgCl2, pH 7.2, 37°C; Δlac1Δsur2 lysate; read-out: apparent Km
T1 construct: native full-length protein in cryo-milled lysate of Δlac1Δsur2 yeast; with Ceramide synthase subunit LIP1
T1 sequence (P38703 1-411): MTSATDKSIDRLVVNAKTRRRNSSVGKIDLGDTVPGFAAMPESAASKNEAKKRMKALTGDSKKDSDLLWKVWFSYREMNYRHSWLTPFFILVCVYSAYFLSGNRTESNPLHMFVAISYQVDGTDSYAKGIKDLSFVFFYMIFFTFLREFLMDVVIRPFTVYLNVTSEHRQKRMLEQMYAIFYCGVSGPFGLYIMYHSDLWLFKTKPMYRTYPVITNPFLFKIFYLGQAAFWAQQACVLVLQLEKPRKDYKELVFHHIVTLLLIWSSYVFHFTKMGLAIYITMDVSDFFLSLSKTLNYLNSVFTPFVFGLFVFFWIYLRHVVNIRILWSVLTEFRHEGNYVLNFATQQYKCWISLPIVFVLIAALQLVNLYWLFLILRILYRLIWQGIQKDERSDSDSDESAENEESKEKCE
T1 sequence (Q03579 1-150 partner): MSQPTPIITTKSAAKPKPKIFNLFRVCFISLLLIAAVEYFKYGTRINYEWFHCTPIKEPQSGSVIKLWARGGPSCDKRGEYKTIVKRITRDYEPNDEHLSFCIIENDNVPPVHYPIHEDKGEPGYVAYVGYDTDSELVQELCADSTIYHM
Source text: in vitro CerS assay, TLC fluorescence of NBD-ceramide on Lag1 | Lag1 (Δlac1Δsur2) has a higher affinity towards PHS than Lac1 (Δlag1Δsur2) | We next determined the Km of Lag1 or Lac1 towards DHS and PHS

Lac1 = target: T2, Lac1 (Saccharomyces cerevisiae, UniProt P28496); test: as above; type: cell-free; details: labelled compound; 50 μM C26-CoA, 5 μM human ACBP1, 20 μM defatted BSA, 2 mM MgCl2, pH 7.2, 37°C; Δlag1Δsur2 lysate; read-out: apparent Km
T2 construct: native full-length protein in cryo-milled lysate of Δlag1Δsur2 yeast; with Ceramide synthase subunit LIP1
T2 sequence (P28496 2-418): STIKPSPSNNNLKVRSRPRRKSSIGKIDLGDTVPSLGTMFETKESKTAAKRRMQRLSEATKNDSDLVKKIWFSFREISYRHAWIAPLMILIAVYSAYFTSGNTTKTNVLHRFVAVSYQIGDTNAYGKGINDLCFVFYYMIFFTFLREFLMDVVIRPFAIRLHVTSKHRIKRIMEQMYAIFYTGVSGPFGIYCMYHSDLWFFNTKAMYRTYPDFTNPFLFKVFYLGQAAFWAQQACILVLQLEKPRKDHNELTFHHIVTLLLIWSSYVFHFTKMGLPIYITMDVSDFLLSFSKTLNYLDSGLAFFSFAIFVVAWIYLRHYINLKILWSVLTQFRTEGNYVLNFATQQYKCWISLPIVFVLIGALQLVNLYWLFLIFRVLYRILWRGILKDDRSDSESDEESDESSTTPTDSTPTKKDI
T2 sequence (Q03579 1-150 partner): T1 sequence (Q03579 1-150 partner)
Source text: in vitro CerS assay, TLC fluorescence of NBD-ceramide on Lac1 | Lag1 (Δlac1Δsur2) has a higher affinity towards PHS than Lac1 (Δlag1Δsur2) | We next determined the Km of Lag1 or Lac1 towards DHS and PHS

| Substance | Km (Lag1) [µM] | Km (Lac1) [µM] |
| --- | --- | --- |
| NBD–PHS | 30.5 ± 6.6 | 128 ± 52.5 |
| NBD–DHS | 132 ± 29 | 165 ± 56 |
